Data set [1] is described as follows: Solubility in pH 7.4 Hank's Balanced Salt Solution, LC/MS/MS. Format: physicochemical. To be noted: pH 7.4 buffer, shaken 2 hours, stood overnight at room temperature. The procedure: The mixtures were shaken for 2 hours using a benchtop vortexer and left to stand overnight at room temperature. […] After vortexing and standing overnight, the resveratrol gel formulation mixture was centrifuged at 14,000 rpm for 10 minutes. The filtrate or supernatant was sampled twice, consecutively, and diluted 10, 100, and 10.000-fold in a mixture of 50:50 assay buffer:acetonitrile prior to analysis. Both mixtures were assayed by LC/MS/MS using electrospray ionization against the standards prepared in a mixture of 50:50 assay buffer:acetonitrile. Standard concentrations ranged from 1.0 μM down to 3.0 nM.

The subject of data set [2] is ovarian cancer (A-2780) cells. To be noted: A-2780 cells in vitro; cited from earlier work.
For data set [3] the following is noted: cited from earlier work.
Data set [4] is described as follows: Visual clarity of the resveratrol/surfactant mixture on addition to water. The note with it: polyoxyl 40 castor oil (macrogoglycerol hydroxystearate) as the surfactant. Format: physicochemical.
Protocol: Water soluble compositions of trans-resveratrol were formulated containing the non-ionic surfactant macrogolglycerol hydroxystearate (polyoxyl 40 castor oil). By heating and stirring this polyoxyl castor oil with a powdered synthetic 99% trans-resveratrol, a clear viscous solution was formed containing dissolved trans-resveratrol (hereinafter referred to as “resveratrol gel formulation”). The resveratrol gel formulation consisted of macrogolglycerol hydroxystearate 40 (50 ml) and powdered trans-resveratrol (3 grams), representing a concentration of 6% for the resveratrol in the surfactant.
The following formulation was prepared as described below: 500 mg of purified resveratrol 99% derived from polygonum cuspidatum (Japanese knotweed) was dissolved in 25 ml of warm macrogoglycerol hydroxystearate until a clear gel was formed. 250 mg of ascorbic acid was added to the clear gel, which was then slowly added to 100 ml of warm water.
The subject of data set [5] is breast cancer (MCF-7) cells. To be noted: MCF-7 cells in vitro; cited from earlier work.
The conditions of data set [6]: humans, up to 4 g; cited from earlier work.

Like-named read-outs stand apart in the source and are kept apart here.

As a reminder, the solubility is the concentration that dissolves in the medium under given conditions. Take `Oc1ccc(/C=C/c2cc(O)cc(O)c2)cc1` [Powdered Resveratrol, trans-3,5,4′-trihydroxystilbene]: the solubility in data set [1] (Hank's Balanced Salt Solution buffer, pH 7.4, aqueous buffer, thermodynamic from solid, average of 2 replicates, read-out: Solubility AVG) was 0.5 µM; in data set [1] (Hank's Balanced Salt Solution buffer, pH 7.4, aqueous buffer, thermodynamic from solid, replicate 1, read-out: Solubility Rep 1) it was 0.4 µM; in data set [1] (Hank's Balanced Salt Solution buffer, pH 7.4, aqueous buffer, thermodynamic from solid, replicate 2, read-out: Solubility Rep 2), 0.61 µM; in data set [1] (average of 2 replicates, read-out: Solubility AVG), 0.505 µM.
For the molecule `Oc1ccc(C=Cc2cc(O)cc(O)c2)cc1` [Resveratrol, 3,5,4′-trihydroxystilbene], the Inhibition of proliferation result in data set [2] and in data set [5] was “inhibited the proliferation” each time. Further, the Solubility in water entry in data set [3] was “insoluble in water”. Also, the “Maximum concentration in surfactant for a crystal-clear solution in water” value in data set [4] is at most 20%.
Regarding `O=c1c(O)c(-c2ccc(O)c(O)c2)oc2cc(O)cc(O)c12` [quercetin], the “Detection in plasma after oral administration” value in data set [6] is “No quercetin could be found in plasma”.

These data come from patent US20110281957A1, “ENHANCED BIOACTIVE FORMULATIONS OF RESVERATROL” (Lipoprotein Technologies, Inc., priority 2008, published 2011).
